Assay results reported in patent publication US9992981B2, “Optogenetic control of reward-related behaviors” (The Board of Trustees of the Leland Stanford Junior …, priority 2010, dated 2018).
Where two headings read alike, the source gives them in different places.

Key:
MSNs = assay: IPSCs in MSNs during photostimulation of ChR2-expressing ChAT neurons in acute NAc slices; type: cell-based, mice
Protocol: Coronal cerebral brain slices were prepared from adult mice with virus previously injected (>2 weeks prior to slicing), using standard techniques in strict accordance with a protocol approved by the Animal Care and Use Committee at Stanford University. Coronal slices 250 μm thick were cut with a vibratome using a sapphire blade in ice cold N-methyl-D-glucamine (NMDG)-based cutting solution containing 135 mM NMDG, 1 mM KCl, 1.2 mM KH2PO4, 20 mM choline bicarbonate, 10 mM glucose, 1.5 mM MgCl2 and 0.5 mM CaCl2. Slices were maintained thereafter in artificial cerebral spinal fluid (ACSF) containing 119 mM NaCl, 2.5 mM KCl, 2.5 mM CaCl2, 1.3 mM MgCl2, 1 mM NaH2PO4, 26.2 mM NaHCO3 and 11 mM glucose. Slices were maintained in ACSF at 37° C. for 30 minutes, and thereafter at room temperature. ACSF was bubbled constantly with 95% O2/5% CO2 and heated to 34° C. for all experiments. Neurons were visualized on an upright microscope (Leica DM-LFSA) equipped with both DIC optics and a filter set for visualizing eYFP using a ×40 water-immersion objective and a charge-coupled device (CCD) camera. Whole-cell recordings were made from neurons using the electrode solution containing 120 mM potassium gluconate, 20 mM HEPES, 10 mM EGTA, 1 mM MgCl2, 2 mM Na-ATP, and 0.2 mM Na-GTP (pH 7.3, 290 mOsm/L); in experiments recording IPSCs, KCl was used to replace potassium gluconate. Pipette resistances were 3-5 MΩ, and recordings were made without series resistance compensation. Membrane potentials have been corrected for the error resulting from the liquid junction potentials. The holding potential (VM) for voltage-clamp experiments was −70 mV. […] […] Photocurrents were evoked using an optical switch with a 300W xenon lamp and either a 470±20 nm or a 580±20 nm bandpass filters; light power at the specimen was 11.52 mW mm^−2 (470 nm) or 10.64 mW mm^−2 (580 nm). Currents filtered at 2 kHz, digitized at 50 kHz, and recorded to disk using pClamp10 software (Axon Instruments).

ChAT neurons = assay: Cocaine response of ChAT cells in slice (spontaneous firing); type: cell-based, mice; conditions: 5 μM cocaine bath, at 10 min; baseline 0.60±0.41 Hz; n=7
Protocol: Coronal cerebral brain slices were prepared from adult mice with virus previously injected (>2 weeks prior to slicing), using standard techniques in strict accordance with a protocol approved by the Animal Care and Use Committee at Stanford University. Coronal slices 250 μm thick were cut with a vibratome using a sapphire blade in ice cold N-methyl-D-glucamine (NMDG)-based cutting solution containing 135 mM NMDG, 1 mM KCl, 1.2 mM KH2PO4, 20 mM choline bicarbonate, 10 mM glucose, 1.5 mM MgCl2 and 0.5 mM CaCl2. Slices were maintained thereafter in artificial cerebral spinal fluid (ACSF) containing 119 mM NaCl, 2.5 mM KCl, 2.5 mM CaCl2, 1.3 mM MgCl2, 1 mM NaH2PO4, 26.2 mM NaHCO3 and 11 mM glucose. Slices were maintained in ACSF at 37° C. for 30 minutes, and thereafter at room temperature. ACSF was bubbled constantly with 95% O2/5% CO2 and heated to 34° C. for all experiments. Neurons were visualized on an upright microscope (Leica DM-LFSA) equipped with both DIC optics and a filter set for visualizing eYFP using a ×40 water-immersion objective and a charge-coupled device (CCD) camera. […] Currents filtered at 2 kHz, digitized at 50 kHz, and recorded to disk using pClamp10 software (Axon Instruments).

[1] = tested on: ChAT interneurons of the NAc; assay: Conditioned place preference (CPP); type: in vivo, mice
[2] = after 15 minutes, cited from earlier work
[3] = Wavelength sensitivity of identified opsins (Tables 1 and 2); conditions: Table 1, opsins for inhibition

Br.COc1ccc(-c2ccc(=N)n(CCCC(=O)O)n2)cc1 [SR-95531]
effect on light-evoked synaptic currents in MSN (MSNs; SR-95531 (5 mM), NBQX and RS-CPP present): blocked

COC(=O)[C@H]1[C@@H](OC(=O)c2ccccc2)C[C@@H]2CC[C@H]1N2C [cocaine, benzoylmethylecgonine]
firing rate of ChAT neurons after cocaine (ChAT neurons): 1.74±0.56 Hz | Conditioned side (min), total time on cocaine-paired side on testing day ([1]; ChAT::Cre+ (eNphR3.0 inhibition paired with cocaine), 10 mg/kg): 10.3 min | Conditioned side (min), total time on cocaine-paired side on testing day ([1]; ChAT::Cre+ (eNphR3.0 inhibition paired with cocaine), 20 mg/kg): 10.7 min | Conditioned side (min), total time on cocaine-paired side on testing day ([1]; ChAT::Cre+ (eNphR3.0 inhibition paired with cocaine), 40 mg/kg): 10.5 min | Conditioned side (min), total time on cocaine-paired side on testing day ([1]; ChAT::Cre− control littermates, 10 mg/kg): 8.5 min | Conditioned side (min), total time on cocaine-paired side on testing day ([1]; ChAT::Cre− control littermates, 20 mg/kg): 14.2 min | Conditioned side (min), total time on cocaine-paired side on testing day ([1]; ChAT::Cre− control littermates, 40 mg/kg): 9.2 min | cocaine in the brain ([2]; i.p. 10 mg/kg): 4.7 µM | cocaine in the brain ([2]; i.p. 20 mg/kg): 9.4 µM

CNC1(C)C2CCC(C2)C1(C)C (centres unmarked) [mecamylamine]
IPSC frequency with light and mecamylamine (MSNs; 10 μM mecamylamine, light alone raised 3.4+/−1.3 Hz to 10.1+/−1.2 Hz, 470 nm, 10 Hz): 5.1+/−1.8 Hz | effect on light-evoked increase of IPSC frequency (MSNs; n=5, P<0.05): attenuated

B1: NpHR: halorhodopsin from Natronomonas pharaonis (protein, UniProt P15647 1-291, looked up)
Halorhodopsin: MTETLPPVTESAVALQAEVTQRELFEFVLNDPLLASSLYINIALAGLSILLFVFMTRGLDDPRAKLIAVSTILVPVVSIASYTGLASGLTISVLEMPAGHFAEGSSVMLGGEEVDGVVTMWGRYLTWALSTPMILLALGLLAGSNATKLFTAITFDIAMCVTGLAAALTTSSHLMRWFWYAISCACFLVVLYILLVEWAQDAKAAGTADMFNTLKLLTVVMWLGYPIVWALGVEGIAVLPVGVTSWGYSFLDIVAKYIFAFLLLNYLTSNESVVSGSILDVPSASGTPADD
Wavelength Sensitivity (max) [3]: 589 nm max

B2: BR: opsin for inhibition, biological origin Halobacterium helobium (protein, UniProt P02945 14-262, looked up)
Bacteriorhodopsin: QAQITGRPEWIWLALGTALMGLGTLYFLVKGMGVSDPDAKKFYAITTLVPAIAFTMYLSMLLGYGLTMVPFGGEQNPIYWARYADWLFTTPLLLLDLALLVDADQGTILALVGADGIMIGTGLVGALTKVYSYRFVWWAISTAAMLYILYVLFFGFTSKAESMRPEVASTFKVLRNVTVVLWSAYPVVWLIGSEGAGIVPLNIETLLFMVLDVSAKVGFGLILLRSRAIFGEAEAPEPSAGDGAAATSD
Wavelength Sensitivity (max) [3]: 570 nm max
